The assay is described as follows: Binding affinity towards 23-nt RNA oligonucleotide from the 5'-untranslated region of the cholestery ester transfer protein (CETP).

Where a SMILES comes first, the peptide text is derived from it.

In the case of `CC(C)C[C@H](NC(=O)[C@H](CCCCN)NC(=O)[C@H](Cc1ccc(O)cc1)NC(=O)[C@@H](N)CCCCN)C(=O)N[C@@H](Cc1ccc(O)cc1)C(=O)N[C@@H](CCCCN)C(=O)N[C@@H](CS)C(N)=O` (H-KYKLYKC-NH2), the Kd was determined as 32 µM.

In general, Kd refers to the free concentration of one partner at which half of the binding sites on the other are occupied at equilibrium, for simple one-to-one binding. The low end stands for higher affinity, the high end for lower affinity.

Source of the values: BindingDB's records for doi:10.1021/jm0010466 (2001).
